Laboratory results: PMC5569068, “Potential inhibitors designed against NDM-1 type metallo-β-lactamases: an attempt to enhance efficacies of antibiotics against multi-drug-resistant bacteria” (Scientific Reports, 2017)

Assays:
[1] = tested on: E. coli DH5α transformed with recombinant NDM-1 (pQE-2- NDM-1); assay: microbe, parasite or virus in culture; type: cell-based; settings: for Minimum inhibitory concentration: (pQE-2- NDM-1) DH5α; for MIC: Escherichia coli, read-out: Minimum inhibitory concentration; for MIC of antibiotic when combined with each of the five molecules: bla NDM-1 clone, combined with M1, M17, M21, M61 or M75
Method: (§1) The MIC was determined for E. coli DH5α cells, E. coli DH5α cells with vector and E. coli DH5α cells with bla NDM-1 carrying vectors. […] We next assayed the activities of these drugs in combination with novel screened molecules.
(§2) The MICs of four antibiotics were calculated (Table 4).

[2] = tested on: original DH5α (with null vector) (pQE-2- Original); assay: microbe, parasite or virus in culture; type: cell-based, E. coli; settings: (pQE-2- Original) DH5α; for MIC: Escherichia coli, read-out: Minimum inhibitory concentration
Method: as §1, §2

Row | Structure (SMILES) | Minimum inhibitory concentration [1] | MIC [1] | MIC of antibiotic when combined with each of the five molecules [1] | MIC [2] | Minimum inhibitory concentration [2]
1 | CO[C@@]1(NC(=O)Cc2cccs2)C(=O)N2C(C(=O)O)=C(COC(N)=O)CS[C@@H]21 [Cefoxitin] | 16.0 mg/L | 16 mg/L | 8 mg/L | 2 mg/L | –
2 | CC(C)(O/N=C(\C(=O)N[C@@H]1C(=O)N2C(C(=O)[O-])=C(C[n+]3ccccc3)CS[C@H]12)c1csc(N)n1)C(=O)O [Ceftazidime] | 8.00 mg/L | 8 mg/L | 4 mg/L | 0.25 mg/L | –
3 | CO/N=C(\C(=O)N[C@@H]1C(=O)N2C(C(=O)O)=C(COC(C)=O)CS[C@H]12)c1csc(N)n1 [Cephotaxime] | 512 mg/L | – | – | – | 0.25 mg/L
4 | C[C@@H](O)[C@H]1C(=O)N2C(C(=O)O)=C(SCCN=CN)C[C@H]12 [Imipenem] | 2.00 mg/L | 2 mg/L | 1 mg/L | 0.5 mg/L | –
5 | C[C@@H](O)[C@H]1C(=O)N2C(C(=O)O)=C(S[C@@H]3CN[C@H](C(=O)N(C)C)C3)[C@H](C)[C@H]12 [Meropenem] | 2.00 mg/L | 2 mg/L | 1 mg/L | 0.5 mg/L | –
